According to publication PMC6770581, “New Thalidomide-Resembling Dicarboximides Target ABC50 Protein and Show Antileukemic and Immunomodulatory Activities” (Biomolecules, 2019):

Assays:
CFPAC cells = experiment: MTT cytotoxicity assay, CFPAC; format: cell-based; conditions: Homo sapiens, 48 h, mean ± SD
Method: Human umbilical vein endothelial cells (purchased from Life Technologies, Carlsbad, CA, USA) were cultured according to the manufacturer’s instructions in Medium 200 supplemented with Low Serum Growth Supplement. 1 × 10^4 cells were seeded on each well on a 96-well plate (Nunc, Roskilde, Denmark). The HeLa (human cervix carcinoma, cat. #93021013), CFPAC (human pancreatic adenocarcinoma, cat. #91112501), K562 (chronic myelogenous leukemia, cat. #89121407), HL-60 (acute myelogenous leukemia, cat. #98070106), and MOLT-4 (Human acute T lymphoblastic leukemia, cat. #85011413) cells were purchased from European Collection of Authenticated Cell Cultures (ECACC). They were cultured in an RPMI 1640 medium supplemented with antibiotics (streptomycin, penicillin) and 10% fetal calf serum (20% for HL60), in a 5% CO2-95% air atmosphere. 7 × 10^3 cells were seeded on each well on a 96-well plate (Nunc). 24 hours later the cells were exposed to the test compounds. The aliquots of stock solutions of the test compounds (freshly prepared in DMSO) were added to the cell cultures to yield final concentrations of 1, 10^−1, 10^−2, 10^−3, 10^−4, and 10^−5 mM. The concentration of DMSO in the cell culture medium was 1%. The IC50 value (the concentration of a test compound required to reduce the cell survival fraction to 50% of the control) was calculated from a dose-response curve and used as a measure of cellular sensitivity to a given treatment. The IC50 values are given as means (± standard deviation (SD)) from 2 independent experiments with 4 technical replicates. The cytotoxicity of all compounds was determined by the MTT (3-(4,5-dimethylthiazol-2-yl)-2,5-diphenyltetrazolium bromide) assay (Sigma, St. Louis, MO, USA). Briefly, after 24 h or 48 h of incubation with a given compound, the cells were treated with the MTT reagent and incubation was continued for 2 h. MTT-formazan crystals were dissolved in 20% SDS and 50% DMF at pH 4.7 and VIS light absorption was measured at 570 and 650 nm on a microplate reader FLUOstar Omega (BMG Labtech, Offenburg, Germany). As a control (100% viability), cells grown in the presence of 1% DMSO were used.

caspases 8/9 [1] = experiment: Caspase-Glo 8 and 9 luminescent activity assay in K562 cells; format: cell-based, human; conditions: K562, 5× IC50, 6 h, control 1% DMSO = 1.0
Method: (§1) Louis, MO). The induction of cell apoptosis was analyzed by Apo-ONE® Homogeneous Caspase-3/7 Assay (Promega, Madison, WI, USA). […] The fluorescence in each well was measured in triplicate (excitation at 485 nm, emission measured at 520 nm) using a microplate reader FLUOStar Omega (BMG-Labtech, Offenburg, Germany). For normalization of the data, the caspase activity in the control cells (exposed to 1% DMSO) was taken as 1.0. […] Luminescence was measured (in triplicate) using a microplate reader FLUOStar Omega. For normalization of the data, the caspase activity in the control cells (exposed to 1% DMSO) was taken as 1.0.

caspases 8/9 [2] = experiment: Caspase-Glo 8 and 9 luminescent activity assay in MOLT-4 cells; format: cell-based, human; conditions: MOLT-4, 5× IC50, 3 h, control 1% DMSO = 1.0
Method: as §1

[3] = test system: BAX, PMAIP1, HTRA2, TNFRSF 10B, ESRRBL1 mRNA; experiment: Real-time RT-qPCR of apoptosis-related mRNAs in K562 cells; format: cell-based, human; conditions: K562, 18 h, 3 10 µM, 6 5 µM (5× IC50), relative to 1% DMSO, normalized to GAPDH
Method: The total RNA pool was isolated from the cells lysates using TriPure Isolation Reagent (Roche, Basel, Switzerland) according to the manufacturer's instruction. Purity and integrity of RNA was checked spectrophotometrically with a NanoDrop ND-1000 spectrophotometer (Thermo Fisher Scientific, Waltham, MA, USA) and Agilent 2100 Bioanalyzer instrument. […] Reverse transcription and polymerase chain reaction (RT-PCR) amplification reactions were performed in one step using a LightCycler® 1.0 Instrument (Roche) and LightCycler RNA Amplification Kit SYBR Green I (Roche). […] The qRT-PCR reactions were optimized for each studied gene and performed according to a general protocol: a reverse transcription reaction (RT) for 10 min. at 55 °C, and a denaturation step for 30 s at 95 °C. The three steps of PCR quantification reaction included: I-denaturation (0 s at 95 °C), II-annealing (10 s at 60 °C), III-product extension (8 s at 72 °C), 45 cycles in total. Subsequent melting experiments were performed by quick denaturation at 95 °C, annealing over 10 s at 65 °C and heating up to 95 °C at 0.1 °C/s. The BAX, PMAIP1, HTRA2, TNFRSF 10B, and ESRRBL1 mRNA levels were normalized against a reference GAPDH mRNA. […]

[4] = test system: HeLa cells with knocked-down ABC50 (HeLa kdABC); experiment: MTT viability of HeLa cells with siRNA knockdown of ABC50; format: cell-based, human; conditions: 48 h
Method: Human umbilical vein endothelial cells (purchased from Life Technologies, Carlsbad, CA, USA) were cultured according to the manufacturer’s instructions in Medium 200 supplemented with Low Serum Growth Supplement. 1 × 10^4 cells were seeded on each well on a 96-well plate (Nunc, Roskilde, Denmark). The HeLa (human cervix carcinoma, cat. #93021013), CFPAC (human pancreatic adenocarcinoma, cat. #91112501), K562 (chronic myelogenous leukemia, cat. #89121407), HL-60 (acute myelogenous leukemia, cat. #98070106), and MOLT-4 (Human acute T lymphoblastic leukemia, cat. #85011413) cells were purchased from European Collection of Authenticated Cell Cultures (ECACC). They were cultured in an RPMI 1640 medium supplemented with antibiotics (streptomycin, penicillin) and 10% fetal calf serum (20% for HL60), in a 5% CO2-95% air atmosphere. 7 × 10^3 cells were seeded on each well on a 96-well plate (Nunc). 24 hours later the cells were exposed to the test compounds. […] The cytotoxicity of all compounds was determined by the MTT (3-(4,5-dimethylthiazol-2-yl)-2,5-diphenyltetrazolium bromide) assay (Sigma, St. Louis, MO, USA). […] MTT-formazan crystals were dissolved in 20% SDS and 50% DMF at pH 4.7 and VIS light absorption was measured at 570 and 650 nm on a microplate reader FLUOstar Omega (BMG Labtech, Offenburg, Germany). […]
HeLa cells were transfected with a siRNA with the aid of Lipofectamine 3000 (Invitrogen, Carlsbas, CA, USA) according to manufacturer’s instructions. […] Unless otherwise stated, cells transfected with a given siRNA were analyzed 48 h post-transfection. siRNAs for ABC50 (NM_001090) were designed with the aid of the siDESIGN Center (www.dharmacon.com), synthesized in-house (the Department of Bioorganic Chemistry, Centre of Molecular and Macromolecular Studies, Polish Academy of Sciences (CMMS PAS) and purified by high-performance liquid chromatography (HPLC). The silencing efficiency of siRNAs was determined by western blotting of ABC50 protein in transfected HeLa cells. The following siRNA duplexes (S—sense strand, AS—antisense strand) were used: […]

[5] = test system: HUVEC (human umbilical vein endothelial cells); conditions: 48 h, MTT, mean ± SD; cited from earlier work

Structure (SMILES)	IC50 (CFPAC cells)	increase of activity of caspases 8/9 compared to the control (caspases 8/9 [1])	activation of caspases 8/9 compared to the control (caspases 8/9 [2])	expression of mRNAs of receptor (TNFRSF 10B, ESRRBL1) and mitochondrial (BAX, PMAIP1, HTRA2) apoptotic pathways [3]	viability of HeLa cells with normal levels of ABC50 (siCTL) ([4]; control siRNA, up to 2.5 µM)	reduction of viability of HeLa kdABC ([4]; si166, 5 µM)	viability of HeLa cells with knocked-down ABC50 (HeLa kdABC) ([4]; si166, up to 2.5 µM)	IC50 [5]
CN(C)CCN1C(=O)C2C(C1=O)C1(c3ccccc3)CC2(c2ccccc2)C(c2ccccc2)=C1c1ccccc1 (stereo not drawn) [Compound 6]	40 ± 3.1 µM	more than 2 fold	more than 10 fold	significantly induced	significantly lower	about 20%	not affected	> 100 µM
CCC12C(=O)C(CC)(C(c3ccccc3)=C1c1ccccc1)C1C(=O)N(CCN3CCCCC3)C(=O)C12 (stereo not drawn) [Compound 3]	> 1000 µM	more than 2 fold	more than 10 fold	significantly induced	–	–	–	> 100 µM
CCC12C(=O)C(CC)(C(c3ccccc3)=C1c1ccccc1)C1C(=O)N(CC(O)CNC(C)C)C(=O)C12 (stereo not drawn) [Compound 5]	> 1000 µM	–	–	–	–	–	–	> 100 µM
